Reference: patent US7625948B2, “Ester compound and medicinal use thereof” (Japan Tobacco Inc., priority 2002, dated 2009)
Read-outs that look alike come from different tables or passages of the source.

Legend:
Syrian hamsters = assay: Test Example 3: olive oil-loading test (inhibition of fat absorption, plasma TG); type: in vivo; details: Mesocricetus auratus, po; 100 mg/kg p.o.; plasma TG 4 hours after olive oil; read-out: Test Example 3 Inhibition of fat absorption after olive oil-loading in Hamster Inhibition rate (%)
[1] = Test Example 6: determination of the concentration in plasma (unchanged form and metabolite, orbital venous plexus and portal vein, LC/MS); type: in vivo; details: hamster, oral, Syrian hamsters; for concentration at 1 h: 1 h after 30 mg/kg p.o.; for concentration at 2 h: 2 h after 30 mg/kg p.o.; for concentration at 4 h: 4 h after 30 mg/kg p.o.
Protocol: Determination of the Concentration in Plasma Syrian hamsters (9-15 weeks of age) under non-fasted conditions were used in the test. A sample was suspended in 0.5% methyl cellulose (vehicle), and the suspension was forced to be administered orally to the hamsters at a dose of 30 or 100 mg/2 mL/kg. After a fixed period of time, blood was partly collected from orbital venous plexus, and the hamsters were subjected to laparotomy under ether anesthesia, and then blood was collected from portal vein. The blood was immediately cooled with ice to separate plasma. A portion of the plasma was extracted with an organic solvent and the supernatant was recovered. Concentration of the sample (unchanged form) and that of the metabolite in the supernatant were determined quantitatively by high performance liquid chromatography/mass spectrometry (LC/MS) comparing with chromatogram of synthetic standard.

[2] = Test Example 7: metabolic stability test in human small intestine S9; type: in vitro ADME; details: human small intestine S9, 2 mg protein/mL, 37° C.
Protocol: (§1) Metabolic Stability Test in Liver S9 and Small Intestine S9
(§2) Human and hamster liver S9 (final concentration: 2 mg protein/mL), and human and hamster small intestine S9 (final concentration: 2 mg protein/mL) were each suspended in 100 mM potassium phosphate buffer (pH 7.4, containing β-nicotinamide adenine dinucleotide phosphate: 1.3 mM, D-glucose-6-phosphate: 3.3 mM, magnesium chloride: 3.3 mM, glucose-6-phosphate dehydrogenase: 0.4 U/mL). The suspensions were mixed with a solution of a sample (Example 2-5) in DMSO. The solutions were incubated at 37° C. for 0, 10 and 60 minutes, and an organic solvent was added thereto. The solutions were centrifuged, and the concentration of the sample (unchanged form) in the supernatant was determined by high performance liquid chromatography/mass spectrometry (LC/MS). Based on the data obtained, remaining rate (%) was calculated according to the following equation.
(§3) Remaining rate(%)=amount of sample 10 or 60 minutes after incubation/amount of sample at zero time after incubation×100

[3] = Test Example 7: metabolic stability test in human liver S9; type: in vitro ADME; details: human liver S9, 2 mg protein/mL, 37° C.
Protocol: as §1, §2, §3

[4] = Test Example 7: metabolic stability test in hamster small intestine S9; type: in vitro ADME; details: hamster small intestine S9, 2 mg protein/mL, 37° C.
Protocol: as §1, §2, §3

Japanese white rabbits = assay: Test Example 5: combination use test in cholesterol-loaded rabbit model (plasma cholesterol); type: in vivo; details: 10 mg/kg in high cholesterol diet, from grouping to the 4th day
Protocol: Japanese white rabbits (male, 19 weeks of age, JW, purchased from Kitayama Labes Co., Ltd.) were fed previously in such a way that they were fed a high cholesterol diet (0.3% cholesterol+3% peanut oil-added RC-4, Product of Oriental Yeast Co., Ltd.) of 70 g/day under limited feeding for one day. The rabbits thus fed were used as a cholesterol-loaded rabbit model, and the grouping of such model was carried out in such a way that there might be no variation in the amount of plasma cholesterol among each group (five rabbits/group). […] The rabbits were fed 70 g of each diet every morning. Blood was collected from auricular artery 6 hours after the feeding on the 4th day of the administration, and cholesterol level in plasma was assayed. In the table, increased amount of plasma cholesterol during from the time of grouping to the 4th day was shown.

[5] = Test Example 7: metabolic stability test in hamster liver S9; type: in vitro ADME; details: hamster liver S9, 2 mg protein/mL, 37° C.
Protocol: as §1, §2, §3

[6] = plasma from peripheral blood (orbital venous plexus), read-out: Concentration in plasma, unaltered form, peripheral blood
[7] = plasma from portal vein blood, read-out: Concentration in plasma, unaltered form, blood of portal vein

Row | Structure (SMILES) | concentration at 1 h [1, 6] | concentration at 2 h [1, 6] | concentration at 4 h [1, 6] | concentration at 1 h [1, 7] | concentration at 2 h [1, 7] | concentration at 4 h [1, 7] | Remaining rate (%) after 10 min. ([2]; 10 min) | Remaining rate (%) after 60 min. ([2]; 60 min) | Remaining rate (%) after 10 min. ([3]; 10 min) | Remaining rate (%) after 60 min. ([3]; 60 min) | Remaining rate (%) after 10 min. ([4]; 10 min) | Remaining rate (%) after 60 min. ([4]; 60 min) | Remaining rate (%) after 10 min. ([5]; 10 min) | Remaining rate (%) after 60 min. ([5]; 60 min) | inhibition in vivo at 100 mg/kg (Syrian hamsters) | Increased amount of total cholesterol (Japanese white rabbits)
1 | CCNC(=O)C(COC(=O)Cc1ccc(NC(=O)c2ccccc2-c2ccc(C(F)(F)F)cc2)cc1)(C(=O)NCC)c1ccccc1 [Example 1, 4-[(4′-Trifluoromethylbiphenyl-2-carbonyl)amino]phenyl-acetic acid 2,2-bisethylcarbamoyl-2-phenylethyl ester] |  |  |  |  |  |  |  |  |  |  |  |  |  |  | 57% | 
2 | CCOC(=O)C(COC(=O)Cc1ccc(OC(=O)c2ccccc2-c2ccc(C(F)(F)F)cc2)cc1)(C(=O)OCC)c1ccccc1 [Example 1-2, 2-Phenyl-2-{2-[4-(4′-trifluoromethylbiphenyl-2-carbonyloxy)phenyl]acetoxymethyl}malonic acid diethyl ester] | < 200 nM | < 200 nM | < 200 nM | < 200 nM | < 200 nM | < 200 nM |  |  |  |  |  |  |  |  |  | 
3 | CCCNC(=O)C(COC(=O)Cc1ccc(NC(=O)c2ccccc2-c2ccc(C(F)(F)F)cc2)cc1)(C(=O)NCCC)c1ccccc1 [Example 1-35] |  |  |  |  |  |  |  |  |  |  |  |  |  |  | 59% | 

Further lines, with some results ahead:

Row | concentration at 1 h [1, 6] | concentration at 2 h [1, 6] | concentration at 4 h [1, 6] | concentration at 1 h [1, 7] | concentration at 2 h [1, 7] | concentration at 4 h [1, 7] | Remaining rate (%) after 10 min. ([2]; 10 min) | Remaining rate (%) after 60 min. ([2]; 60 min) | Remaining rate (%) after 10 min. ([3]; 10 min) | Remaining rate (%) after 60 min. ([3]; 60 min) | Remaining rate (%) after 10 min. ([4]; 10 min) | Remaining rate (%) after 60 min. ([4]; 60 min) | Remaining rate (%) after 10 min. ([5]; 10 min) | Remaining rate (%) after 60 min. ([5]; 60 min) | Structure (SMILES) | inhibition in vivo at 100 mg/kg (Syrian hamsters) | Increased amount of total cholesterol (Japanese white rabbits)
4 | < 200 nM | < 200 nM | < 200 nM | < 200 nM | < 200 nM | < 200 nM |  |  |  |  |  |  |  |  | O=C(Cc1ccc(NC(=O)c2ccccc2-c2ccc(C(F)(F)F)cc2)cc1)OCC(C(=O)NCC(F)(F)F)(C(=O)NCC(F)(F)F)c1ccccc1 [Example 1-12] |  | 
5 | < 200 nM | < 200 nM | < 200 nM | < 200 nM | < 200 nM | < 200 nM |  |  |  |  |  |  |  |  | COC(=O)C(COC(=O)Cc1ccc(NC(=O)c2ccccc2-c2ccc(C(F)(F)F)cc2)cc1)(C(=O)OC)c1ccccc1 [Example 1-13] |  | 
6 | < 20 nM | < 20 nM | < 20 nM | 10 nM | 30 nM | 10 nM | 97.6% | 91.5% | 7.9% | 4.3% | 29.0% | 14.1% | 2.4% | 0% | CCOC(=O)C(COC(=O)Cc1ccc(NC(=O)c2ccccc2-c2ccc(C(F)(F)F)cc2)c(C(=O)N(C)C)c1)(C(=O)OCC)c1ccccc1 [Example 2-5] |  | 8.6 mg/dL
